Measurements from PubChem BioAssay (NCI).
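Five concentrations, 48 hours, 96-well plates. TGI: total growth inhibition.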

Experiments:
Assay in all cases: NCI tumour cell line growth inhibition, 48 h
LXFL 529 NSCLC = test system: LXFL 529 NSCLC
XF 498 CNS = test system: XF 498 CNS
HOP-18 NSCLC = test system: HOP-18 NSCLC
RXF-631 renal = test system: RXF-631 renal
786-0 renal = test system: 786-0 renal
MDA-MB-435 = test system: MDA-MB-435
BT-549 breast = test system: BT-549 breast
P388 leukemia = test system: P388 leukemia
SN12K1 renal = test system: SN12K1 renal
P388/ADR leukemia = test system: P388/ADR leukemia
DU-145 prostate = test system: DU-145 prostate
MDA-N = test system: MDA-N

For `Cc1ccc2c(c1)C(=O)N(N(C)C)CC(=O)N2`, the TGI (LXFL 529 NSCLC) was > 100 µM, the TGI (XF 498 CNS) was > 100 µM and the TGI (HOP-18 NSCLC) was > 100 µM.

`c1coc(CNc2ncnc3[nH]ncc23)c1` was tested, and the TGI (LXFL 529 NSCLC) was > 100 µM, the TGI (XF 498 CNS) was > 100 µM and the TGI (RXF-631 renal) was > 100 µM. The TGI (786-0 renal) was > 100 µM.

In the case of `N#CN=[N+]([O-])c1ccc(C(=O)O)cc1`, the TGI (MDA-MB-435) is reported as 31.8 µM and the TGI (BT-549 breast) is reported as 31.4 µM.

With `CSc1nc(NC2OCC(O)C(O)C2O)c(N)c(=O)[nH]1` (stereo unspecified) the TGI (P388 leukemia) was > 100 µM, the TGI (SN12K1 renal) was > 100 µM and the TGI (P388/ADR leukemia) was > 100 µM. For the same compound, the TGI (HOP-18 NSCLC) was > 100 µM.

For `CCOC(=O)NC(Nc1ncccn1)(C(=O)OCC)C(F)(F)F` (stereo unspecified), the TGI (DU-145 prostate) was > 100 µM, the TGI (MDA-N) was > 100 µM and the TGI (MDA-MB-435) was > 100 µM. For the same compound, the TGI (BT-549 breast) was > 100 µM.

Compound `CCN(CC)CCNc1ccc2nnn3c4ccc(C)cc4c(=O)c1c23` has a TGI (LXFL 529 NSCLC) of 24.5 µM, a TGI (RXF-631 renal) of 18.4 µM and a TGI (786-0 renal) of 18.6 µM.

In the case of `CC(=O)OCC1=C(C(=O)O)N2C(=O)C(NC(=O)CSc3ccncc3)C2SC1` (stereo unspecified), the TGI (DU-145 prostate) is reported as > 100 µM, the TGI (MDA-N) is reported as > 100 µM and the TGI (MDA-MB-435) is reported as > 100 µM. The TGI (BT-549 breast) was > 100 µM and the TGI (786-0 renal) was > 100 µM.

In the case of `O=C1CSC(=S)N1`, the TGI (DU-145 prostate) is reported as > 100 µM, the TGI (MDA-N) is reported as > 100 µM and the TGI (786-0 renal) is reported as > 100 µM.

For `Brc1ccc(C2CC(c3cccc4ccccc34)=Nc3ccccc3S2)cc1` (stereo unspecified), the TGI (LXFL 529 NSCLC) was > 100 µM and the TGI (XF 498 CNS) was > 100 µM.

For `CC(C)(C)[Si](C)(C)OCC1OC(n2cnc3c(N)ncnc32)CC1O` (stereo unspecified), the TGI (DU-145 prostate) was > 100 µM, the TGI (MDA-N) was > 100 µM and the TGI (MDA-MB-435) was > 100 µM. The TGI (BT-549 breast) was > 100 µM.

For `O=C1NC2=C(CCCC/C2=N\O)C12CCCCC2`, the TGI (LXFL 529 NSCLC) was > 100 µM and the TGI (XF 498 CNS) was > 100 µM.

For `Cc1cc2c(cc1C)OC(=O)CC2`, the TGI (DU-145 prostate) was > 100 µM, the TGI (MDA-N) was > 100 µM and the TGI (MDA-MB-435) was > 100 µM. For the same compound, the TGI (BT-549 breast) was > 100 µM and the TGI (786-0 renal) was > 100 µM.

`CC(=O)c1ccc2c(c1)c1c(C)c3c[n+](C)ccc3c(C)c1n2C` gave a TGI (P388 leukemia) of 4.68 µM, a TGI (SN12K1 renal) of 13.7 µM and a TGI (P388/ADR leukemia) of 21.6 µM. For the same compound, the TGI (XF 498 CNS) was 17.1 µM and the TGI (HOP-18 NSCLC) was 75.9 µM.
